Source: publication PMC9674830, “A glutamine-based single α-helix scaffold to target globular proteins” (Nature Communications, 2022)

Target: T1, RAP74-CTD (Homo sapiens, UniProt P35269)
T1 construct: spanning residues 450-517; His6-MBP (with TEV site) (N, cleaved yes); made in house; host or cells: E. coli Rosetta (DE3)pLysS
T1 sequence (P35269 450-517): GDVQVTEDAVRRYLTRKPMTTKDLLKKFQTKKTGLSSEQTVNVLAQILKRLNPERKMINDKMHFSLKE
Assay: NMR chemical shift perturbation titration of peptides into 15N RAP74-CTD (KD)
Type: binding
Settings: 15 molar equivalents of peptide, NMR
Procedure: Recombinant samples with ^15N isotope enrichment of the C-terminal domain of subunit 1 of the general transcription regulator TFIIF (RAP74-CTD), spanning residues 450-517, were obtained as described previously. A codon-optimized synthetic gene cloned in a pDONR221 vector was obtained from GeneArt (Thermo Fisher Scientific, Waltham, MA, USA) and subcloned into a pDEST-His6MBP vector obtained from Addgene. Rosetta (DE3)pLysS competent cells (Novagen, Merck KGaA, Darmstadt, Germany) were grown in MOPS medium with ^15NH4Cl as the only nitrogen source (310 K, induction at OD600 = 0.7, 1 mM IPTG, harvesting 3 h after induction). Soluble fractions of cell lysates from sonication in lysis buffer (50 mM Tris-HCl, 1 M NaCl, 10 mM imidazole, pH 8.0) were purified by IMAC, and fractions containing the His6MBP-TEV-RAP74-CTD fusion were dialyzed at 277 K overnight against cleavage buffer (50 mM Tris-HCl, 200 mM NaCl, 0.5 mM EDTA, pH 8.0) in the presence of TEV protease (50 μg/mL). A second IMAC step was performed and the flow-through containing the RAP-CTD was loaded onto a HiTrap SP HP cation exchange column followed by a size exclusion chromatography step on a Superdex 75 GL 10/300 column equilibrated with NMR buffer (20 mM sodium phosphate, 0.1% trifluoroacetic acid, pH 7.4), both mounted in an Äkta Purifier System (GE Healthcare, Chicago, IL, USA). The sample was concentrated to 100 μM using an Amicon Ultra 15 mL centrifugal filter (Merck KGaA, Darmstadt, Germany).
Before the experiment, both the protein and the peptide were dialyzed (277 K, two dialysis steps) in the same preparation of NMR buffer (20 mM sodium phosphate, 0.1% trifluoroacetic acid, pH 7.4), using a Pur-A-Lyzer (Sigma-Aldrich, Burlington, MA, USA) and a Micro Float-A-Lyzer (Spectrum Laboratories, San Francisco, CA, USA) respectively. The chemical shift assignment of RAP74-CTD was reported previously (BMRB code 27288). Averaged ^1H and ^15N chemical shift perturbations (CSPs) were calculated as:2 ΔδAV=(Δδ1H)^2+1/5Δδ15N^2
Dissociation constants, KD, and averaged CSP amplitude, Δδmax, for δ, δstpl, γ and γstpl peptide binding to RAP74-CTD were obtained by a global fitting (nonlinear regression) of the 10% peaks with the largest averaged CSPs to the following single-site binding model (1:1 stoichiometry):3 Δδ=Δδmax([Protein]+[Peptide]+KD)−([Protein]+[Peptide]+KD)^2−4[Protein][Peptide]/2[Protein]

KKPGASLAALQALQALQAAQAAKKY [(P3-7)2, Gln-based single α-helix scaffold peptide]
CSPs (ppm) induced by peptide on 15N RAP74-CTD, residue 452 (RAP74-CTD residue 452): 0.00133 ppm | CSPs (ppm) induced by peptide on 15N RAP74-CTD, residue 453 (RAP74-CTD residue 453): 0.00174 ppm | CSPs (ppm) induced by peptide on 15N RAP74-CTD, residue 454 (RAP74-CTD residue 454): 0.00213 ppm | CSPs (ppm) induced by peptide on 15N RAP74-CTD, residue 455 (RAP74-CTD residue 455): 0.00368 ppm | CSPs (ppm) induced by peptide on 15N RAP74-CTD, residue 457 (RAP74-CTD residue 457): 0.000762 ppm | CSPs (ppm) induced by peptide on 15N RAP74-CTD, residue 458 (RAP74-CTD residue 458): 0.00141 ppm | CSPs (ppm) induced by peptide on 15N RAP74-CTD, residue 459 (RAP74-CTD residue 459): 0.00114 ppm | CSPs (ppm) induced by peptide on 15N RAP74-CTD, residue 460 (RAP74-CTD residue 460): 0.00136 ppm | CSPs (ppm) induced by peptide on 15N RAP74-CTD, residue 461 (RAP74-CTD residue 461): 0.00237 ppm | CSPs (ppm) induced by peptide on 15N RAP74-CTD, residue 462 (RAP74-CTD residue 462): 0.00141 ppm | CSPs (ppm) induced by peptide on 15N RAP74-CTD, residue 463 (RAP74-CTD residue 463): 0.00149 ppm | CSPs (ppm) induced by peptide on 15N RAP74-CTD, residue 464 (RAP74-CTD residue 464): 0.002 ppm | CSPs (ppm) induced by peptide on 15N RAP74-CTD, residue 465 (RAP74-CTD residue 465): 0.000665 ppm | CSPs (ppm) induced by peptide on 15N RAP74-CTD, residue 466 (RAP74-CTD residue 466): 0.00337 ppm | CSPs (ppm) induced by peptide on 15N RAP74-CTD, residue 468 (RAP74-CTD residue 468): 0.000677 ppm | CSPs (ppm) induced by peptide on 15N RAP74-CTD, residue 469 (RAP74-CTD residue 469): 0.00178 ppm | CSPs (ppm) induced by peptide on 15N RAP74-CTD, residue 470 (RAP74-CTD residue 470): 0.00475 ppm | CSPs (ppm) induced by peptide on 15N RAP74-CTD, residue 471 (RAP74-CTD residue 471): 0.006 ppm | CSPs (ppm) induced by peptide on 15N RAP74-CTD, residue 472 (RAP74-CTD residue 472): 0.003 ppm | CSPs (ppm) induced by peptide on 15N RAP74-CTD, residue 473 (RAP74-CTD residue 473): 0.00131 ppm | CSPs (ppm) induced by peptide on 15N RAP74-CTD, residue 474 (RAP74-CTD residue 474): 0.000952 ppm | CSPs (ppm) induced by peptide on 15N RAP74-CTD, residue 475 (RAP74-CTD residue 475): 0.0011 ppm | CSPs (ppm) induced by peptide on 15N RAP74-CTD, residue 476 (RAP74-CTD residue 476): 0.00225 ppm | CSPs (ppm) induced by peptide on 15N RAP74-CTD, residue 477 (RAP74-CTD residue 477): 0.0034 ppm | CSPs (ppm) induced by peptide on 15N RAP74-CTD, residue 478 (RAP74-CTD residue 478): 0.00316 ppm | CSPs (ppm) induced by peptide on 15N RAP74-CTD, residue 484 (RAP74-CTD residue 484): 0.00185 ppm | CSPs (ppm) induced by peptide on 15N RAP74-CTD, residue 487 (RAP74-CTD residue 487): 0.009 ppm | CSPs (ppm) induced by peptide on 15N RAP74-CTD, residue 488 (RAP74-CTD residue 488): 0.000614 ppm | CSPs (ppm) induced by peptide on 15N RAP74-CTD, residue 489 (RAP74-CTD residue 489): 0.00261 ppm | CSPs (ppm) induced by peptide on 15N RAP74-CTD, residue 490 (RAP74-CTD residue 490): 0.002 ppm | CSPs (ppm) induced by peptide on 15N RAP74-CTD, residue 491 (RAP74-CTD residue 491): 0.002 ppm | CSPs (ppm) induced by peptide on 15N RAP74-CTD, residue 492 (RAP74-CTD residue 492): 0.003 ppm | CSPs (ppm) induced by peptide on 15N RAP74-CTD, residue 493 (RAP74-CTD residue 493): 0.00151 ppm | CSPs (ppm) induced by peptide on 15N RAP74-CTD, residue 494 (RAP74-CTD residue 494): 0.00469 ppm | CSPs (ppm) induced by peptide on 15N RAP74-CTD, residue 495 (RAP74-CTD residue 495): 0.00146 ppm | CSPs (ppm) induced by peptide on 15N RAP74-CTD, residue 496 (RAP74-CTD residue 496): 0.00171 ppm | CSPs (ppm) induced by peptide on 15N RAP74-CTD, residue 497 (RAP74-CTD residue 497): 0.00134 ppm | CSPs (ppm) induced by peptide on 15N RAP74-CTD, residue 498 (RAP74-CTD residue 498): 0.00172 ppm | CSPs (ppm) induced by peptide on 15N RAP74-CTD, residue 499 (RAP74-CTD residue 499): 0.000579 ppm | CSPs (ppm) induced by peptide on 15N RAP74-CTD, residue 500 (RAP74-CTD residue 500): 0.00095 ppm | CSPs (ppm) induced by peptide on 15N RAP74-CTD, residue 501 (RAP74-CTD residue 501): 0.00151 ppm | CSPs (ppm) induced by peptide on 15N RAP74-CTD, residue 503 (RAP74-CTD residue 503): 0.000881 ppm | CSPs (ppm) induced by peptide on 15N RAP74-CTD, residue 504 (RAP74-CTD residue 504): 0.002 ppm | CSPs (ppm) induced by peptide on 15N RAP74-CTD, residue 505 (RAP74-CTD residue 505): 0.002 ppm | CSPs (ppm) induced by peptide on 15N RAP74-CTD, residue 506 (RAP74-CTD residue 506): 0.008 ppm | CSPs (ppm) induced by peptide on 15N RAP74-CTD, residue 507 (RAP74-CTD residue 507): 0.004 ppm | CSPs (ppm) induced by peptide on 15N RAP74-CTD, residue 509 (RAP74-CTD residue 509): 0.00319 ppm | CSPs (ppm) induced by peptide on 15N RAP74-CTD, residue 510 (RAP74-CTD residue 510): 0.000691 ppm | CSPs (ppm) induced by peptide on 15N RAP74-CTD, residue 512 (RAP74-CTD residue 512): 0.00469 ppm | CSPs (ppm) induced by peptide on 15N RAP74-CTD, residue 513 (RAP74-CTD residue 513): 0.00335 ppm | CSPs (ppm) induced by peptide on 15N RAP74-CTD, residue 514 (RAP74-CTD residue 514): 0.001 ppm | CSPs (ppm) induced by peptide on 15N RAP74-CTD, residue 515 (RAP74-CTD residue 515): 0.00145 ppm | CSPs (ppm) induced by peptide on 15N RAP74-CTD, residue 516 (RAP74-CTD residue 516): 0.00117 ppm | CSPs (ppm) induced by peptide on 15N RAP74-CTD, residue 517 (RAP74-CTD residue 517): 0.000251 ppm
